Assay results reported in the supplement of paper PMC4862054.

The molecules below were run on MDA-MB-231 (assay: normalised response (% of control), CellTiter-Glo; higher = more viable cells (100 = DMSO, 0 = benzethonium chloride kill control)). Settings: incubation time: 72 h.
Experimental: (§1)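 DSRT, 72 h incubation, CellTox Green / CellTiter-Glo readout. Signal is normalised to DMSO and benzethonium chloride controls. Value is the normalised response at dose 3.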

| SMILES | normalised response [%] |
| --- | --- |
| COc1cc(F)c(F)c(Nc2ccc(I)cc2F)c1NS(=O)(=O)C1(C[C@H](O)CO)CC1 [Refametinib] (100 nM) | 83.6 |

The molecules below were run on MDA-MB-436 in the same assay as above. Settings: incubation time: 72 h.
Experimental: as §1

| SMILES | normalised response [%] |
| --- | --- |
| Cc1sc2c(c1C)C(c1ccc(Cl)cc1)=N[C@@H](CC(=O)OC(C)(C)C)c1nnc(C)n1-2 [(+)JQ1] (100 nM) | 102 |
| Oc1ncnc2[nH]ncc12 [Allopurinol] (100 nM) | 99.5 |
| CC1=C2C[C@H]3[C@@H](CC=C4C[C@@H](O)CC[C@@]43C)[C@@H]2CC[C@]12O[C@@H]1C[C@H](C)CN[C@H]1[C@H]2C [Cyclopamine] (100 nM) | 99.7 |
| CC(=O)N(O)CCCCCNC(=O)CCC(=O)N(O)CCCCCNC(=O)CCC(=O)N(O)CCCCCN [Deferoxamine] (100 nM) | 102 |
| C[C@]12CC[C@@H]3c4ccc(OC(=O)N(CCCl)CCCl)cc4CC[C@H]3[C@@H]1CC[C@@H]2O [Estramustine] (100 nM) | 98.4 |
| CC1(C)CNc2cc(NC(=O)c3cccnc3NCc3ccncc3)ccc21 [Motesanib] (100 nM) | 96.9 |
| CC(=O)c1c(C)c2cnc(Nc3ccc(N4CCNCC4)cn3)nc2n(C2CCCC2)c1=O [Palbociclib] (100 nM) | 96.4 |
| CC[C@@H]1C(=O)OC[C@@H]1Cc1cncn1C [Pilocarpine] (400 nM) | 88.3 |
| COc1cc(F)c(F)c(Nc2ccc(I)cc2F)c1NS(=O)(=O)C1(C[C@H](O)CO)CC1 [Refametinib] (100 nM) | 91.6 |

What follows are molecules tested on Hs578T in the same assay as above. Settings: incubation time: 72 h.
Experimental: as §1

| SMILES | normalised response [%] |
| --- | --- |
| Cc1sc2c(c1C)C(c1ccc(Cl)cc1)=N[C@@H](CC(=O)OC(C)(C)C)c1nnc(C)n1-2 [(+)JQ1] (100 nM) | 73.4 |
| Oc1ncnc2[nH]ncc12 [Allopurinol] (100 nM) | 105 |
| CC1=C2C[C@H]3[C@@H](CC=C4C[C@@H](O)CC[C@@]43C)[C@@H]2CC[C@]12O[C@@H]1C[C@H](C)CN[C@H]1[C@H]2C [Cyclopamine] (100 nM) | 105 |
| CC(=O)N(O)CCCCCNC(=O)CCC(=O)N(O)CCCCCNC(=O)CCC(=O)N(O)CCCCCN [Deferoxamine] (100 nM) | 101 |
| C[C@]12CC[C@@H]3c4ccc(OC(=O)N(CCCl)CCCl)cc4CC[C@H]3[C@@H]1CC[C@@H]2O [Estramustine] (100 nM) | 93 |
| CC1(C)CNc2cc(NC(=O)c3cccnc3NCc3ccncc3)ccc21 [Motesanib] (100 nM) | 96.3 |
| CC(=O)c1c(C)c2cnc(Nc3ccc(N4CCNCC4)cn3)nc2n(C2CCCC2)c1=O [Palbociclib] (100 nM) | 103 |
| CC[C@@H]1C(=O)OC[C@@H]1Cc1cncn1C [Pilocarpine] (400 nM) | 97.8 |
| COc1cc(F)c(F)c(Nc2ccc(I)cc2F)c1NS(=O)(=O)C1(C[C@H](O)CO)CC1 [Refametinib] (100 nM) | 87.4 |

What follows are molecules tested on MCF-10A in the same assay as above. Settings: incubation time: 72 h.
Experimental: as §1

| SMILES | normalised response [%] |
| --- | --- |
| Cc1sc2c(c1C)C(c1ccc(Cl)cc1)=N[C@@H](CC(=O)OC(C)(C)C)c1nnc(C)n1-2 [(+)JQ1] (100 nM) | 84.6 |
| Oc1ncnc2[nH]ncc12 [Allopurinol] (100 nM) | 104 |
| CC1=C2C[C@H]3[C@@H](CC=C4C[C@@H](O)CC[C@@]43C)[C@@H]2CC[C@]12O[C@@H]1C[C@H](C)CN[C@H]1[C@H]2C [Cyclopamine] (100 nM) | 106 |
| CC(=O)N(O)CCCCCNC(=O)CCC(=O)N(O)CCCCCNC(=O)CCC(=O)N(O)CCCCCN [Deferoxamine] (100 nM) | 96.8 |
| C[C@]12CC[C@@H]3c4ccc(OC(=O)N(CCCl)CCCl)cc4CC[C@H]3[C@@H]1CC[C@@H]2O [Estramustine] (100 nM) | 88.2 |
| CC1(C)CNc2cc(NC(=O)c3cccnc3NCc3ccncc3)ccc21 [Motesanib] (100 nM) | 92.5 |
| CC(=O)c1c(C)c2cnc(Nc3ccc(N4CCNCC4)cn3)nc2n(C2CCCC2)c1=O [Palbociclib] (100 nM) | 85.8 |
| CC[C@@H]1C(=O)OC[C@@H]1Cc1cncn1C [Pilocarpine] (400 nM) | 101 |
| COc1cc(F)c(F)c(Nc2ccc(I)cc2F)c1NS(=O)(=O)C1(C[C@H](O)CO)CC1 [Refametinib] (100 nM) | 37.9 |

What follows are molecules tested on CAL-51 in the same assay as above. Settings: incubation time: 72 h.
Experimental: as §1

| SMILES | normalised response [%] |
| --- | --- |
| Cc1sc2c(c1C)C(c1ccc(Cl)cc1)=N[C@@H](CC(=O)OC(C)(C)C)c1nnc(C)n1-2 [(+)JQ1] (100 nM) | 106 |
| Oc1ncnc2[nH]ncc12 [Allopurinol] (100 nM) | 86.8 |
| CC1=C2C[C@H]3[C@@H](CC=C4C[C@@H](O)CC[C@@]43C)[C@@H]2CC[C@]12O[C@@H]1C[C@H](C)CN[C@H]1[C@H]2C [Cyclopamine] (100 nM) | 99.3 |
| CC(=O)N(O)CCCCCNC(=O)CCC(=O)N(O)CCCCCNC(=O)CCC(=O)N(O)CCCCCN [Deferoxamine] (100 nM) | 96.2 |
| C[C@]12CC[C@@H]3c4ccc(OC(=O)N(CCCl)CCCl)cc4CC[C@H]3[C@@H]1CC[C@@H]2O [Estramustine] (100 nM) | 86.7 |
| CC1(C)CNc2cc(NC(=O)c3cccnc3NCc3ccncc3)ccc21 [Motesanib] (100 nM) | 107 |
| CC(=O)c1c(C)c2cnc(Nc3ccc(N4CCNCC4)cn3)nc2n(C2CCCC2)c1=O [Palbociclib] (100 nM) | 72.8 |
| CC[C@@H]1C(=O)OC[C@@H]1Cc1cncn1C [Pilocarpine] (400 nM) | 63.4 |
| COc1cc(F)c(F)c(Nc2ccc(I)cc2F)c1NS(=O)(=O)C1(C[C@H](O)CO)CC1 [Refametinib] (100 nM) | 88.3 |

What follows are molecules tested on CAL-120 in the same assay as above. Settings: incubation time: 72 h.
Experimental: as §1

| SMILES | normalised response [%] |
| --- | --- |
| Cc1sc2c(c1C)C(c1ccc(Cl)cc1)=N[C@@H](CC(=O)OC(C)(C)C)c1nnc(C)n1-2 [(+)JQ1] (100 nM) | 97.9 |
| Oc1ncnc2[nH]ncc12 [Allopurinol] (100 nM) | 103 |
| CC1=C2C[C@H]3[C@@H](CC=C4C[C@@H](O)CC[C@@]43C)[C@@H]2CC[C@]12O[C@@H]1C[C@H](C)CN[C@H]1[C@H]2C [Cyclopamine] (100 nM) | 104 |
| CC(=O)N(O)CCCCCNC(=O)CCC(=O)N(O)CCCCCNC(=O)CCC(=O)N(O)CCCCCN [Deferoxamine] (100 nM) | 99.2 |
| C[C@]12CC[C@@H]3c4ccc(OC(=O)N(CCCl)CCCl)cc4CC[C@H]3[C@@H]1CC[C@@H]2O [Estramustine] (100 nM) | 101 |
| CC1(C)CNc2cc(NC(=O)c3cccnc3NCc3ccncc3)ccc21 [Motesanib] (100 nM) | 99.9 |
| CC(=O)c1c(C)c2cnc(Nc3ccc(N4CCNCC4)cn3)nc2n(C2CCCC2)c1=O [Palbociclib] (100 nM) | 86.4 |
| CC[C@@H]1C(=O)OC[C@@H]1Cc1cncn1C [Pilocarpine] (400 nM) | 96.6 |
| COc1cc(F)c(F)c(Nc2ccc(I)cc2F)c1NS(=O)(=O)C1(C[C@H](O)CO)CC1 [Refametinib] (100 nM) | 87.7 |

The molecules below were run on SK-BR-3 in the same assay as above. Settings: incubation time: 72 h.
Experimental: as §1

| SMILES | normalised response [%] |
| --- | --- |
| Cc1sc2c(c1C)C(c1ccc(Cl)cc1)=N[C@@H](CC(=O)OC(C)(C)C)c1nnc(C)n1-2 [(+)JQ1] (100 nM) | 92.8 |
| Oc1ncnc2[nH]ncc12 [Allopurinol] (100 nM) | 105 |
| CC1=C2C[C@H]3[C@@H](CC=C4C[C@@H](O)CC[C@@]43C)[C@@H]2CC[C@]12O[C@@H]1C[C@H](C)CN[C@H]1[C@H]2C [Cyclopamine] (100 nM) | 112 |
| CC(=O)N(O)CCCCCNC(=O)CCC(=O)N(O)CCCCCNC(=O)CCC(=O)N(O)CCCCCN [Deferoxamine] (100 nM) | 88.2 |
| C[C@]12CC[C@@H]3c4ccc(OC(=O)N(CCCl)CCCl)cc4CC[C@H]3[C@@H]1CC[C@@H]2O [Estramustine] (100 nM) | 85.3 |
| CC1(C)CNc2cc(NC(=O)c3cccnc3NCc3ccncc3)ccc21 [Motesanib] (100 nM) | 92.1 |
| CC(=O)c1c(C)c2cnc(Nc3ccc(N4CCNCC4)cn3)nc2n(C2CCCC2)c1=O [Palbociclib] (100 nM) | 86.3 |
| CC[C@@H]1C(=O)OC[C@@H]1Cc1cncn1C [Pilocarpine] (400 nM) | 89.7 |
| COc1cc(F)c(F)c(Nc2ccc(I)cc2F)c1NS(=O)(=O)C1(C[C@H](O)CO)CC1 [Refametinib] (100 nM) | 90.6 |

These molecules were tested on MDA-MB-453 in the same assay as above. Settings: incubation time: 72 h.
Experimental: as §1

| SMILES | normalised response [%] |
| --- | --- |
| Cc1sc2c(c1C)C(c1ccc(Cl)cc1)=N[C@@H](CC(=O)OC(C)(C)C)c1nnc(C)n1-2 [(+)JQ1] (100 nM) | 94.6 |
| Oc1ncnc2[nH]ncc12 [Allopurinol] (100 nM) | 110 |
| CC1=C2C[C@H]3[C@@H](CC=C4C[C@@H](O)CC[C@@]43C)[C@@H]2CC[C@]12O[C@@H]1C[C@H](C)CN[C@H]1[C@H]2C [Cyclopamine] (100 nM) | 122 |
| CC(=O)N(O)CCCCCNC(=O)CCC(=O)N(O)CCCCCNC(=O)CCC(=O)N(O)CCCCCN [Deferoxamine] (100 nM) | 84.4 |
| C[C@]12CC[C@@H]3c4ccc(OC(=O)N(CCCl)CCCl)cc4CC[C@H]3[C@@H]1CC[C@@H]2O [Estramustine] (100 nM) | 83.1 |
| CC1(C)CNc2cc(NC(=O)c3cccnc3NCc3ccncc3)ccc21 [Motesanib] (100 nM) | 99.8 |
| CC(=O)c1c(C)c2cnc(Nc3ccc(N4CCNCC4)cn3)nc2n(C2CCCC2)c1=O [Palbociclib] (100 nM) | 105 |
| CC[C@@H]1C(=O)OC[C@@H]1Cc1cncn1C [Pilocarpine] (400 nM) | 96.1 |
| COc1cc(F)c(F)c(Nc2ccc(I)cc2F)c1NS(=O)(=O)C1(C[C@H](O)CO)CC1 [Refametinib] (100 nM) | 97.6 |

These molecules were tested on BT-474 in the same assay as above. Settings: incubation time: 72 h.
Experimental: as §1

| SMILES | normalised response [%] |
| --- | --- |
| Cc1sc2c(c1C)C(c1ccc(Cl)cc1)=N[C@@H](CC(=O)OC(C)(C)C)c1nnc(C)n1-2 [(+)JQ1] (100 nM) | 86.2 |
| Oc1ncnc2[nH]ncc12 [Allopurinol] (100 nM) | 101 |
| CC1=C2C[C@H]3[C@@H](CC=C4C[C@@H](O)CC[C@@]43C)[C@@H]2CC[C@]12O[C@@H]1C[C@H](C)CN[C@H]1[C@H]2C [Cyclopamine] (100 nM) | 101 |
| CC(=O)N(O)CCCCCNC(=O)CCC(=O)N(O)CCCCCNC(=O)CCC(=O)N(O)CCCCCN [Deferoxamine] (100 nM) | 95 |
| C[C@]12CC[C@@H]3c4ccc(OC(=O)N(CCCl)CCCl)cc4CC[C@H]3[C@@H]1CC[C@@H]2O [Estramustine] (100 nM) | 98.1 |
| CC1(C)CNc2cc(NC(=O)c3cccnc3NCc3ccncc3)ccc21 [Motesanib] (100 nM) | 101 |
| CC(=O)c1c(C)c2cnc(Nc3ccc(N4CCNCC4)cn3)nc2n(C2CCCC2)c1=O [Palbociclib] (100 nM) | 85.7 |
| CC[C@@H]1C(=O)OC[C@@H]1Cc1cncn1C [Pilocarpine] (400 nM) | 94.5 |
| COc1cc(F)c(F)c(Nc2ccc(I)cc2F)c1NS(=O)(=O)C1(C[C@H](O)CO)CC1 [Refametinib] (100 nM) | 81 |

The molecules below were run on DU-4475 in the same assay as above. Settings: incubation time: 72 h.
Experimental: as §1

| SMILES | normalised response [%] |
| --- | --- |
| Cc1sc2c(c1C)C(c1ccc(Cl)cc1)=N[C@@H](CC(=O)OC(C)(C)C)c1nnc(C)n1-2 [(+)JQ1] (100 nM) | 93.5 |
| Oc1ncnc2[nH]ncc12 [Allopurinol] (100 nM) | 106 |
| CC1=C2C[C@H]3[C@@H](CC=C4C[C@@H](O)CC[C@@]43C)[C@@H]2CC[C@]12O[C@@H]1C[C@H](C)CN[C@H]1[C@H]2C [Cyclopamine] (100 nM) | 109 |
| CC(=O)N(O)CCCCCNC(=O)CCC(=O)N(O)CCCCCNC(=O)CCC(=O)N(O)CCCCCN [Deferoxamine] (100 nM) | 93.9 |
| C[C@]12CC[C@@H]3c4ccc(OC(=O)N(CCCl)CCCl)cc4CC[C@H]3[C@@H]1CC[C@@H]2O [Estramustine] (100 nM) | 93.3 |
| CC1(C)CNc2cc(NC(=O)c3cccnc3NCc3ccncc3)ccc21 [Motesanib] (100 nM) | 102 |
| CC(=O)c1c(C)c2cnc(Nc3ccc(N4CCNCC4)cn3)nc2n(C2CCCC2)c1=O [Palbociclib] (100 nM) | 98 |
